# Assay results published in patent US20120071544A1, “Methods For Identifying Compounds Effective To Increase The Expression Or Activity Of Aspartyl Aminopeptidase In Mammalian Pancreatic Islet Cells, And Methods For Decreasing Angiotensin II Levels In Mammalian Pancreatic Islet Cells” (priority 2010, published 2012).
# How the values were obtained:
# DAP mRNA = DAP mRNA level in transfected MIN6 cells by RT-PCR; assay type: cell-based, mouse; conditions: 48 hours culture
# Method: It was also investigated whether endogenous DAP levels affect the Ang II levels. Dnpep siRNA and control siRNA were purchased (Qiagen, Germantown, Md.). The target sequences were nucleotides 328-348 (SEQ ID NO. 11:
# […]) of mouse Dnpep cDNA (GenBank NM_001110831; SEQ ID NO. 12). MIN6 cells were maintained in DMEM, supplemented with 10% FCS, 10 mM glucose, 2 mmol/l glutamine, 100 U/ml penicillin, and 0.1 mg/ml streptomycin.
# (§1) The cells were transfected with […] of Dnpep siRNA of SEQ ID NO. 13, non-silencing control siRNA, or a full-length of Dnpep cDNA (SEQ ID NO. 12) in pCMV-SPORT6 (Open Biosystems, Huntsville, Ala.) by electroporation (BioRad Laboratories, Berkeley, Calif.). A total of 1×10^5 of the cells was seeded into 6-well culture plates coated with poly-L-lysine and cultured for 24 h. The transfection efficiency was approximately 50 percent according to a co-transfected GFP marker.
# (§2) After 48 hours culture, cells and culture media were collected. Real-time PCR (RT-PCR) was conducted with the primers (Assay ID Details: Mm00497488_m1*) and the 7900HT Fast Real-Time PCR System (Applied Biosystems, Foster City, Calif.). Western blots were performed using the ECL Reagents (GE, Piscataway, N.J.).
# DAP = DAP protein level in transfected MIN6 cells by Western blot; assay type: cell-based, mouse; conditions: 48 hours culture, Western blots
# Method: (§3) The DAP gene was either knocked down with DAP RNAi construct or overexpressed by transient transfection of DAP-pCMV in MIN6 cells.
# (§4) The full-length DAP construct or the control vector was transfected into MIN6 cells. After culturing for 48 hours, MIN6 cells and the culture media were harvested for measurement of DAP and Ang II levels. Higher expression level of DAP (2.1-fold±0.6) in DAP-pCMV-transfected MIN6 cells compared to that in the vector-transfected cells was detected by Western blots. Ang II levels in MIN6 cell lysates and the cultured media were measured after the transfection and compared to the control transfected cells. Ang II-specific ELISA kit (Cayman Chemical) was used for the measurements.
# as §1
# After 48 hours culture, cells and culture media were collected. […]
# [1] = tested on: Ang II levels in MIN6 cells; assay: Ang II levels in MIN6 cell lysates and cultured media by Ang II ELISA; assay type: cell-based, mouse
# Method: as §3, §4, §1, §2
# Ang II levels were measured using the AssayMax Ang II ELISA Kit (Cayman Chemical, Ann Arbor, Mich.). Briefly, standards or samples were incubated in a 96-well plate with biotinylated anti-Ang II antibody for 2 h. After the washings, Streptavidin-Peroxidase Conjugate was added for 30 min. The final reaction was developed with the substrate chromogen and read at 450 nm by an ELISA reader. Ang II levels in the samples were calculated from an Ang II standard curve run with each assay. Values (mean±SEM) are from at least three independent experiments. ANOVA with Tukey's post hoc test was used for statistical analysis.
# Angiotensin II (1-8) = assay: cell-based or functional assay
Substance,Endogenous DAP mRNA level knocked down (DAP mRNA),DAP protein level decrease compared to control cells (DAP),"Intracellular Ang II levels ([1]; MIN6 cell lysates, 48 hours after transfection, mean±SEM)","Intracellular Ang II levels, increase compared to control cells ([1]; MIN6 cell lysates, 48 hours culture)","Extracellular Ang II levels, increase compared to control cells ([1]; MIN6 culture media, 48 hours culture)","Extracellular Ang II levels ([1]; MIN6 cultured media, 48 hours after transfection, mean±SEM)",extracellular Ang II level in DAP RNAi-transfected MIN6 cells against control cells (Ang II ELISA) (percent increase) (Angiotensin II (1-8)),extracellular Ang II level in DAP-transfected MIN6 cells against control cells (Ang II ELISA) (percent lower) (Angiotensin II (1-8)),intracellular Ang II level in DAP RNAi-transfected MIN6 cells against control cells (Ang II ELISA) (percent increase) (Angiotensin II (1-8)),intracellular Ang II level in DAP-transfected MIN6 cells against vector-treated cells (Ang II ELISA) (percent lower) (Angiotensin II (1-8))
"DAP RNAi: Dnpep siRNA (Qiagen, SEQ ID NO. 13) targeting nucleotides 328-348 of mouse Dnpep cDNA (AATGTGGCCTGGATGGCCTCT; listed as DNA, chemistry not given here; the letters are possibly those of the target site; listed as Mus musculus)",78%,70%,50±6 pg/mg protein,up to 74%,57%,52±5.3 pg/mg protein,–,–,–,–
"aspartyl aminopeptidase (DAP), mouse, gene product of Dnpep (from UniProt Q9Z2W0 1-473) (enzyme)",–,–,–,–,–,–,57,35,74,28
